# Results as given in patent US20110009335A1, “Anticancer Treatments” (priority 2008, published 2011).
# Where two headings read alike, the source gives them in different places.
# Columns and labels:
# [1] = system: CAKI-1 human renal tumor xenograft; assay: Aplidine with sorafenib, CAKI-1 xenograft in athymic nude mice (Example 1); format: in vivo
# Method: (§1) Female athymic nude mice (Harlan Sprague Dawley, Madison, Wis.) were utilized for all experiments. Mice were implanted with tumor fragments or a cell suspension when mice were 5 weeks of age. Animals were housed in ventilated rack caging, 5 mice per cage, with food and water ad libitum. The mice were acclimated for 1 week prior to being implanted with tumor fragments or cell suspensions.
# (§2) Tumor measurements were determined by using Vernier calipers. The formula to calculate volume for a prolate ellipsoid was used to estimate tumor volume (mm^3) from 2-dimensional tumor measurements: Tumor volume (mm^3)=[L×W^2]÷2, where L is the length and it is the longest diameter in mm, and W is the width and it is the shortest diameter in mm of a tumor. Assuming unit density, volume was converted to weight (i.e., 1 mm^3=1 mg).
# (§3) Body weights were recorded on treatment days and when tumor sizes were measured. In those days wherein the two drugs were administered the same day, the combination therapy groups were treated by co-administering the two drugs at the same time, with no attempt to sequence the treatments.
# (§4) Aplidine was provided in the form of vials of lyophilized aplidine powder which was reconstituted in Cremophor EL/ethanol/water (CEW) 15/15/70 to a concentration of 0.5 mg/ml. Then the aplidine solution in CEW was diluted in 0.9% Saline to the dosing formulation concentrations, being the final proportion of CEW of 0.18/0.18/0.84.
# (§5) Tumor size measurements were recorded twice weekly from the treatment initiation until the termination of the study.
# (§6) Mean, standard deviation and standard error of the mean were determined for tumor volume for all animal groups at all assessments. Student's t test was performed on tumor volumes at each measurement day, including at the end of the study, to determine whether there were any statistically significant differences between combination treatment groups and single monotherapy treatment groups.
# (§7) Determine the % of tumor growth inhibition, as 100−% T/C, for each of the drugs administered as monotherapy at the doses used in the combinations. % T/C was obtained by comparing the mean tumor weight in the treatment groups (T) to the mean tumor weight in the control group (C) (T/C×100%). • 2. The two scores were added together to determine the “expected response” if each agent produced the same response as it did when administered as monotherapy. • 3. This “expected response” was subtracted from the % of tumor growth inhibition determined for the combination therapy group: • a. A negative number meant that the effect of combining the two drugs was less than additive. • b. If the resulting number was close to zero, the effect of combining the two drugs was determined as additive. • c.
# [2] = system: MRI-H-121 human renal tumor xenograft; assay: Aplidine with sorafenib, MRI-H-121 xenograft in athymic nude mice (Example 1); format: in vivo
# Method: as §1, §2, §3, §4, §5, §6, §7
# [3] = system: HepG2 human hepatoma xenograft; assay: Aplidine with sorafenib, HepG2 xenograft in athymic nude mice (Example 6); format: in vivo; details: for % Inhibition G4: sorafenib 30 mg/kg/day; for % Inhibition G3: sorafenib 60 mg/kg/day
# Method: Female athymic nude mice (Harlan Sprague Dawley, Madison, Wis.) were utilized for all experiments. Mice were implanted with a cell suspension when mice were 6-8 weeks of age. Animals were housed in ventilated rack caging with food and water ad libitum. The mice were acclimated for at least 5 days prior to tumor implantation.
# The tumor model used in this study was HepG2, which is a human hepatoma cell line obtained from the ATCC (Manassas, Va.). HepG2 cells were grown in MEM medium, 10% FBS, 1.5 g/l sodium bicarbonate, 0.1 mM non-essential amino acids, 1.0 mM sodium pyruvate and 2 mM L-glutamine. Cells from in vitro passage 4-20 were implanted SC into study mice: 5×10^6 cells/mouse in 0.2 ml 50% Matrigel/50% medium without antibiotics or serum, using a 23 G needle and 1 cc syringe. Bacterial cultures were performed on aliquots of the cells prepared for implantation.
# Tumor measurements were determined as disclosed in Example 1. When tumor growth was within an average size range of 130±44 mg (mean±SD), mice were randomized into the treatment and control groups based on tumor weight by using LabCat® In Life module V 8.0 SP1 tumor tracking and measurement software.
# The treatment of HepG2-tumor-bearing mice was initiated on DPI (Day Post Implantation) 19. Body weights were recorded on treatment days and when tumor sizes were measured. In those days wherein the two drugs were administered the same day, the combination therapy groups were treated by co-administering the two drugs at the same time, with no attempt to sequence the treatments.
# Aplidine was provided in the form of vials of lyophilized aplidine powder which was reconstituted in Cremophor EL/ethanol/water (CEW) 15/15/70 to a concentration of 0.5 mg/ml. The aplidine solution in CEW was diluted in 0.9% Saline to the dosing formulation concentrations, being the final proportion of CEW of 0.18/0.18/0.84.
# as §5, §6
# The definition and criteria for the evaluation of potentiation and the degree of additivity for the combination therapy were the same as those disclose in Example 1.
# [4] = aplidine 0.040 and/or sorafenib 30 mg/kg/day
# [5] = aplidine 0.060 and/or sorafenib 60 mg/kg/day
smiles,measurement,setting,value
CNC(=O)c1cc(Oc2ccc(NC(=O)Nc3ccc(Cl)c(C(F)(F)F)c3)cc2)ccn1 [sorafenib],% T/C on day 7,[1]; [4],116.6%
same,% T/C on day 9,[1]; [4],130.2%
same,% T/C on day 13,[1]; [4],105.4%
same,% T/C on day 21,[1]; [4],113.0%
same,% T/C on day 23,[1]; [4],117.1%
same,% T/C on day 28,[1]; [4],90.3%
same,% T/C on day 31,[1]; [4],84.0%
same,% T/C on day 34,[1]; [4],86.0%
same,% T/C on day 37,[1]; [4],92.8%
same,% T/C on day 41,[1]; [4],98.0%
same,% T/C on day 44,[1]; [4],105.8%
same,% T/C on day 49,[1]; [4],102.8%
same,% T/C on day 7,[1]; [5],100.6%
same,% T/C on day 9,[1]; [5],128.9%
same,% T/C on day 13,[1]; [5],104.5%
same,% T/C on day 21,[1]; [5],121.2%
same,% T/C on day 23,[1]; [5],116.6%
same,% T/C on day 28,[1]; [5],110.5%
same,% T/C on day 31,[1]; [5],105.2%
same,% T/C on day 34,[1]; [5],110.2%
same,% T/C on day 37,[1]; [5],119.5%
same,% T/C on day 41,[1]; [5],120.5%
same,% T/C on day 14,[2]; [4],99.7%
same,% T/C on day 16,[2]; [4],85.6%
same,% T/C on day 20,[2]; [4],62.1%
same,% T/C on day 27,[2]; [4],78.7%
same,% T/C on day 30,[2]; [4],72.0%
same,% T/C on day 34,[2]; [4],66.1%
same,% T/C on day 37,[2]; [4],72.5%
same,% T/C on day 41,[2]; [4],79.5%
same,% T/C on day 44,[2]; [4],77.6%
same,% T/C on day 48,[2]; [4],76.1%
same,% T/C on day 14,[2]; [5],103.8%
same,% T/C on day 16,[2]; [5],85.0%
same,% T/C on day 20,[2]; [5],66.5%
same,% T/C on day 23,[2]; [5],71.7%
same,% T/C on day 27,[2]; [5],70.4%
same,% T/C on day 30,[2]; [5],75.6%
same,% T/C on day 34,[2]; [5],69.6%
same,% T/C on day 37,[2]; [5],71.1%
same,% T/C on day 41,[2]; [5],74.7%
same,% T/C on day 44,[2]; [5],71.0%
same,% T/C on day 48,[2]; [5],71.8%
same,antitumor activity as single agent (monotherapy),"[2]; doses and schedules tested, sorafenib 60 or 30 mg/kg/day",did not reach the NCI criteria for activity
same,% T/C on day 19,[3]; G3: sorafenib 60 mg/kg/day PO,88.8%
same,% T/C on day 22,[3]; G3: sorafenib 60 mg/kg/day PO,78.7%
same,% T/C on day 26,[3]; G3: sorafenib 60 mg/kg/day PO,60.1%
same,% T/C on day 30,[3]; G3: sorafenib 60 mg/kg/day PO,61.8%
same,% T/C on day 33,[3]; G3: sorafenib 60 mg/kg/day PO,66.2%
same,% T/C on day 19,[3]; G4: sorafenib 30 mg/kg/day PO,101.4%
same,% T/C on day 22,[3]; G4: sorafenib 30 mg/kg/day PO,123.5%
same,% T/C on day 26,[3]; G4: sorafenib 30 mg/kg/day PO,91.3%
same,% T/C on day 30,[3]; G4: sorafenib 30 mg/kg/day PO,100.9%
same,antitumor activity as single agent (monotherapy),[3]; doses tested,inactive
same,% Inhibition G4,[3]; day 22,−23.5%
same,% Inhibition G4,[3]; day 26,8.7%
same,% Inhibition G4,[3]; day 30,−0.9%
same,% Inhibition G4,[3]; day 33,9.6%
same,% Inhibition G3,[3]; day 19,11.2%
same,% Inhibition G3,[3]; day 26,39.9%
same,% Inhibition G3,[3]; day 30,38.2%
same,% Inhibition G3,[3]; day 33,33.8%
same,effect on body weight / toxicity,"mouse, in vivo",did not cause a significant decline in mean body weight
CO[C@H]1C[C@@H]2CC[C@@H](C)[C@@](O)(O2)C(=O)C(=O)N2CCCC[C@H]2C(=O)O[C@H]([C@H](C)C[C@@H]2CC[C@@H](OC(=O)C(C)(CO)CO)[C@H](OC)C2)CC(=O)[C@H](C)/C=C(\C)[C@@H](O)[C@@H](OC)C(=O)[C@H](C)C[C@H](C)/C=C/C=C/C=C/1C [temsirolimus],effect on body weight / toxicity,"CAKI-1 study, Example 4 (temsirolimus)",did not cause a significant decline in mean body weight
same,effect on body weight / toxicity,"NCI-H-460 study, Example 5 (temsirolimus)",did not cause a significant decline in mean body weight
